Laboratory results reported in ChEMBL document CHEMBL1201862, “PubChem BioAssay data set” (2004).
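A five-concentration, 48-hour dose response in 96-well plates underlies each endpoint, interpolated linearly between surrounding concentrations. GI50 marks 50% less growth.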 Active and inactive are the calls of the source. No stated cut-off is given here; in the data, active = GI50 up to about 1.1 µM and inactive = higher.

Key:
Experiment in all cases: DTP human tumour cell line panel, 48 h
BT-549 = tested on: BT-549
HCT-15 = tested on: HCT-15
HOP-62 = tested on: HOP-62
HT-29 = tested on: HT-29
K562 = tested on: K562
MDA-MB-231 = tested on: MDA-MB-231
Malme-3M = tested on: Malme-3M
NCI/ADR-RES = tested on: NCI/ADR-RES
OVCAR-8 = tested on: OVCAR-8
RPMI-8226 = tested on: RPMI-8226
SF-295 = tested on: SF-295
SN12C = tested on: SN12C
SR = tested on: SR
U-251 = tested on: U-251
UACC-257 = tested on: UACC-257
A498 = tested on: A498
IGROV-1 = tested on: IGROV-1
SK-MEL-5 = tested on: SK-MEL-5
SK-OV-3 = tested on: SK-OV-3
UACC-62 = tested on: UACC-62

| SMILES | GI50 (BT-549) | GI50 (HCT-15) | GI50 (HOP-62) | GI50 (HT-29) | GI50 (K562) | GI50 (MDA-MB-231) | GI50 (Malme-3M) | GI50 (NCI/ADR-RES) | GI50 (OVCAR-8) | GI50 (RPMI-8226) | GI50 (SF-295) | GI50 (SN12C) | GI50 (SR) | GI50 (U-251) | GI50 (UACC-257) | GI50 (A498) | GI50 (IGROV-1) | GI50 (SK-MEL-5) | GI50 (SK-OV-3) | GI50 (UACC-62) |
| --- | --- | --- | --- | --- | --- | --- | --- | --- | --- | --- | --- | --- | --- | --- | --- | --- | --- | --- | --- | --- |
| CC(C)(NO)/C(=N\O)c1ccccc1 | > 10 µM (inactive) | > 10 µM | > 10 µM (inactive) | > 10 µM (inactive) | > 10 µM (inactive) | > 10 µM (inactive) | > 10 µM (inactive) | > 10 µM (inactive) | > 10 µM (inactive) | > 10 µM (inactive) | > 10 µM (inactive) | > 10 µM (inactive) | > 10 µM (inactive) | > 10 µM (inactive) | > 10 µM (inactive) |  |  |  |  |  |
| COc1ccc(-n2cnc3c(NC(CCSC)C(=O)O)ncnc32)cc1 (stereo not drawn) | > 100 µM (inactive) | > 100 µM | > 100 µM (inactive) | > 100 µM (inactive) | > 100 µM (inactive) | > 100 µM (inactive) |  | > 100 µM (inactive) | > 100 µM (inactive) | > 100 µM (inactive) | > 100 µM (inactive) | > 100 µM (inactive) | > 100 µM (inactive) | > 100 µM (inactive) | > 100 µM (inactive) | > 100 µM (inactive) | > 100 µM (inactive) | > 100 µM (inactive) | > 100 µM (inactive) | > 100 µM (inactive) |
| N#CCCN(CCC#N)c1ccc(C(=N/c2ccc(F)cc2)/N=N/c2ccc(Cl)cc2)cc1 | > 100 µM (inactive) | > 100 µM | > 100 µM (inactive) | > 100 µM (inactive) | > 100 µM (inactive) | > 100 µM (inactive) |  | > 100 µM (inactive) | > 100 µM (inactive) | > 100 µM (inactive) | > 100 µM (inactive) | > 100 µM (inactive) | > 100 µM (inactive) | > 100 µM (inactive) | > 100 µM (inactive) | > 100 µM (inactive) | > 100 µM (inactive) | > 100 µM (inactive) | > 100 µM (inactive) | > 100 µM (inactive) |
| COC(=O)NC(C(F)(F)F)(C(F)(F)F)P1(=O)OCCCO1 | 22.1 µM (inactive) | 22.8 µM | 21.6 µM (inactive) | 23.8 µM (inactive) | 22.9 µM (inactive) | 25.3 µM (inactive) |  | 39.4 µM (inactive) | 27.3 µM (inactive) | 18.1 µM (inactive) | 23.7 µM (inactive) | 34.8 µM (inactive) | 20.7 µM (inactive) | 13.1 µM (inactive) |  | 17 µM (inactive) | 22.3 µM (inactive) | 17.6 µM (inactive) | 18.9 µM (inactive) | 15 µM (inactive) |
| CCCCCCNC(=O)c1cnc(Cl)cn1 | 26.2 µM (inactive) | 2.55 µM | 16.1 µM (inactive) | 33.1 µM (inactive) | 13 µM (inactive) | 16.7 µM (inactive) | 16.7 µM (inactive) | 15.6 µM (inactive) | 12.4 µM (inactive) | 29 µM (inactive) | 18.1 µM (inactive) | 13.3 µM (inactive) | 4.3 µM (inactive) | 11.5 µM (inactive) | 14.3 µM (inactive) |  | 10.5 µM (inactive) | 16.8 µM (inactive) | 22.9 µM (inactive) | 17.2 µM (inactive) |
| Cc1ccc(-c2n[nH]c(=O)n2NC(=O)c2ccccc2C(=O)O)cc1 | > 100 µM (inactive) | > 100 µM | > 100 µM (inactive) | > 100 µM (inactive) | > 100 µM (inactive) | > 100 µM (inactive) | > 100 µM (inactive) | > 100 µM (inactive) | > 100 µM (inactive) | > 100 µM (inactive) | > 100 µM (inactive) | > 100 µM (inactive) | > 100 µM (inactive) | > 100 µM (inactive) | > 100 µM (inactive) |  | > 100 µM (inactive) | > 100 µM (inactive) |  | > 100 µM (inactive) |
| N/N=c1\[nH]c2ccccc2o1 | > 100 µM (inactive) | 77.3 µM |  | > 100 µM (inactive) | 89.7 µM (inactive) | > 100 µM (inactive) | > 100 µM (inactive) | 52.7 µM (inactive) | 64.6 µM (inactive) | 67.6 µM (inactive) |  | > 100 µM (inactive) | 52 µM (inactive) | > 100 µM (inactive) | > 100 µM (inactive) | > 100 µM (inactive) | > 100 µM (inactive) | > 100 µM (inactive) |  | > 100 µM (inactive) |
| CCc1n[nH]c(=O)n1O | > 100 µM (inactive) |  | > 100 µM (inactive) | > 100 µM (inactive) | > 100 µM (inactive) | > 100 µM (inactive) | > 100 µM (inactive) | > 100 µM (inactive) | > 100 µM (inactive) |  | > 100 µM (inactive) | > 100 µM (inactive) | > 100 µM (inactive) | > 100 µM (inactive) | > 100 µM (inactive) | > 100 µM (inactive) | > 100 µM (inactive) | > 100 µM (inactive) | > 100 µM (inactive) | > 100 µM (inactive) |
